The subject of one test is MDM2. As to the kind of experiment: Immunoblot of MDM2 protein levels. Type of test: cell-based. The settings on record: 1 μM lapatinib. In general terms: In western blotting, separated proteins are transferred to a membrane and probed.
For a further test, the system named is Huwe1. Briefly: Immunoblot of Huwe1 protein levels and stability. Type of test: cell-based. As to the method:
FIG. 13 is a set of immunoblots showing MDM2-mediated ubiquitylation and degradation of Huwe1 in lapatinib-resistant cells. […] Cells treated with 1 μM lapatinib were harvested at various time points and immunoblotted. […] FIG. 13B is an immunoblot for HA and actin. BT474 and rBT474 cells were transiently transfected with HA-tagged Huwe1 and subsequently treated with 50 μg/ml cycloheximide (CHX) and 1 μM lapatinib. FIG. 13C is an immunoblot for Huwe1 and MDM2. Immunoprecipitation was carried out using H1299 cell lysates and anti-Huwe1 antibody (or control IgG). FIG. 13D is an immunoblot for HA or MDM2 after immunoprecipitation with HA. BT474 cells were transfected with HA-tagged Huwe1 encoding the full-length protein, residues 1-2474, or residues 2473-4374. […] H1299 cells were transfected with empty vector, HA-Huwe1^W1202A, or HA-Huwe1 wild type. FIG. 13F is an immunoblot for Huwe1 and Actin. BT474 cells were transfected with increasing amounts of MDM2 and harvested after 48 hours. FIG. 13G is an immunoblot for Huwe1, MDM2, and actin. […] FIG. 13H is an immunoblot for Huwe1. Ubiquitylation of Huwe1 was reconstituted in vitro by incubating recombinant Huwe1 protein (Huwe1^1-2474) with E1, UbcH5 (E2), ubiquitin (Ub), and recombinant MDM2 protein in reaction buffer at 37° C. for 3 hours. […] Twenty-four hours later, the cells were replated and further transfected with HA-tagged Huwe1 (wild type). Forty-eight hours after siRNA transfection, the cells were treated with 1 μM lapatinib. After 24 hours of lapatinib treatment, 50 μg/ml cycloheximide (CHX) was added to the culture medium and cells were harvested at various time points for immunoblotting.

Another test has as its system Akt. Briefly: Immunoblot of phospho-AKT in lapatinib-treated cells. Type of test: cell-based. The settings on record: sensitive and resistant cells, 1 μM lapatinib, 50 μM z-VAD.
For a further test, the system named is CAS. Briefly: Immunoblot of CAS protein levels. In kind it is cell-based. How it is done: FIG. 11 is a set of photographs of immunoblots showing CAS degradation in lapatinib-resistant cells. FIG. 11A is an immunoblot for CAS and Actin. BT474 and rBT474 (left) or AU565 and rAU565 cells (right) cultured in the absence of lapatinib for one week were treated with 1 μM lapatinib and the cells were harvested at various time points. FIG. 11B is an immmunoblot for CAS and Actin. rBT474 cells were maintained in the presence of […] lapatinib and the cells were harvested at various time points following removal of lapatinib. FIG. 11C is an immunoblot for FLAG and actin. BT474 and rBT474 cells were transiently transfected with FLAG-tagged CAS and subsequently treated with 50 μg/ml cycloheximide (CHX) and 1 μM lapatinib and the cells were harvested at various time points. FIG. 11D is an immunoblot using HA to analyze ubiquitination of CAS. BT474 and rBT474 (left) or SKBR3 and rSKBR3 cells (right) were co-transfected with FLAG-CAS and HA-Ub. […] After treatment with 10 μM MG 132 for 8 hours, cells were harvested and FLAG-CAS was retrieved by immunoprecipitation. FIG. 11E is an immunoblot for FLAG-tagged proteins retrieved by immunoprecipitation and association with MDM2. H1299 cells were transfected with empty vector, FLAG-CAS^W127A, or FLAG-CAS wild type. FIG. 11F is an immunoblot for CAs after immunoprecipitation for FLAG. H1299 cells were transfected with empty vector, FLAG-CAS^W127A, or FLAG-CAS wild type. Cells were treated with 10 μM MG132 for 3 hours. […] SKBR3 cells were transfected with increasing amounts of MDM2. After 48 hours, cells were harvested and immunoblotted (*non-specific band). FIG. 11H is an immunoblot for CAS. […] FIG. 11I is an immunoblot for MDM2 or CAs after immunoprecipitation with FLAG. BT474 and rBT474 cells were transfected with FLAG-CAS. […] After treatment with 10 μM MG132 for 5 hours, FLAG-CAS was retrieved by immunoprecipitation and association of endogenous MDM2 was analyzed by immunoblotting.

The subject of test [1] is caspase-9 / caspase-3 activation. As to the kind of experiment: Cytochrome c-induced caspase activation in cell lysates. The settings on record: lysates of resistant cells cultured in the presence of lapatinib. In kind it is cell-based.
Description: FIG. 7A is an immunoblot for caspase-9 (cleaved and non-cleaved) and cleaved caspase-3 (C9 and C3, respectively) showing rBT474 cells cultured in the absence or presence of 1 μM lapatinib for one week, as compared to BT474 cells which were maintained without lapatinib. Cytosolic lysates prepared from BT474 or rBT474 were incubated with 1 mM dATP and various amounts of cytochrome c (CC). FIG. 7B is a set of graphs showing Caspase 3 activity in the indicated cell lysates over time. Caspase-3 activity was assayed by measuring cleavage of DEVD-pNA following incubation of the cell lysates with 1 mM dATP and various concentrations of cytochrome c.
Cell lysates for apoptotic assays were prepared as described previously using buffer A (20 mM HEPES [pH 7.4], 10 mM KCl, 1.5 mM MgCl2, 1 mM EDTA, 1 mM EGTA, 1 mM dithiothreitol, 1 mM phenylmethylsulfonyl fluoride, 5 μg/ml leupeptin, and 5 μg/ml aprotinin). […]
Colorimetric caspase assays were performed by incubating cell lysate (3 μl) in 90 μl DEVDase buffer (50 mM HEPES [pH 7.5], 100 mMNaCl, 0.1% CHAPS, 10 mMDTT, 1 mMEDTA, 10% glycerol) containing the peptide substrate, Ac-DEVD-pNA (200 mM final concentration; BIOMOL Research Labs). […] Absorbance of the colorimetric product was measured at 405 nm using a Bio-Rad microplate reader.
Another test has as its target HER2 (Homo sapiens, UniProt P04626). Briefly: Immunoblot of phospho-HER2 in lapatinib-treated cells. Type of test: cell-based. The settings on record: 1 μM lapatinib, 24 hours, z-VAD 50 μM; even in resistant cells.
Another test deals with Erk1/2. As to the kind of experiment: Immunoblot of phospho-Erk1/2 in lapatinib-treated cells. In kind it is cell-based. The settings on record: sensitive and resistant cells, 1 μM lapatinib, 50 μM z-VAD.
Another test has as its system CAS mRNA. As to the kind of experiment: Quantitative real-time PCR of CAS mRNA. In kind it is cell-based. The settings on record: sensitive or resistant cells.
The next test relates to AU565-derived tumor. Briefly: AU565 mammary fat pad xenograft. Type of test: in vivo, mouse. Particulars: 100 mg/kg each drug, twice daily by oral gavage.
The target of a further test is T1, CAS-MDM2 interaction (Homo sapiens, UniProt Q00987).
T1 construct: association of endogenous MDM2 was analyzed by immunoblotting; expressed in transfected cells; host or cells: BT474 and rBT474 cells transfected with FLAG-CAS; MDM2 endogenous
T1 sequence (Q00987 whole entry): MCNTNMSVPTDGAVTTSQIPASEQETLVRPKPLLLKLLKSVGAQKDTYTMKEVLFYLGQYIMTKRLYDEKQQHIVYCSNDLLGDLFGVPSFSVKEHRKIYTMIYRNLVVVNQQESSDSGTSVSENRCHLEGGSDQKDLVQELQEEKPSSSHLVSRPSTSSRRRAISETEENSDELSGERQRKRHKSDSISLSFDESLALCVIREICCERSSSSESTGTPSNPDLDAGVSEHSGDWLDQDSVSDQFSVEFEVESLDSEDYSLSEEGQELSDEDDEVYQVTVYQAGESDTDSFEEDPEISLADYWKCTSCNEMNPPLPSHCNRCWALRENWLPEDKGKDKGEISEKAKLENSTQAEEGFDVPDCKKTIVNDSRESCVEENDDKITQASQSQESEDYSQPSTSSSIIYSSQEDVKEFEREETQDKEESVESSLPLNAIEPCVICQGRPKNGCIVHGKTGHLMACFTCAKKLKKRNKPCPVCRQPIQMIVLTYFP
Briefly: CAS-MDM2 co-immunoprecipitation. In kind it is cell-based. The settings on record: 1 μM lapatinib, 24 hours.

In test [2] the test system is BT474, SKBR3, AU565 and SUM190 cells. Briefly: Apoptotic cell death (Annexin V FACS) in parental lapatinib-sensitive lines. Particulars: all four parental sensitive cell lines. In kind it is cell-based. How it is done:
FIG. 2 is a set of graphs showing the percentage of cells undergoing apoptotic cell death for each of the four cell lines and their matched resistant cell line in the presence or absence of lapatinib and/or an MDM2 inhibitor, MI-219, as measured by FACS analysis for Annexin V. Results are expressed as mean +/− SEM of Annexin V positive cells.
BT474, SKBR3, and AU565 cells were obtained from ATCC. SUM190 cells were obtained from Asterand, Inc. All cell lines were cultured in RPMI medium containing 10% fetal bovine serum (FBS). Lapatinib-resistant cells (rBT474, rSKBR3, rAU565, and rSUM190) were established as previously described^14. Cobleigh, et al. J. Clin. Oncol. 17, 2639-2648 (1999). Lapatinib-resistant cells were grown in the presence of 1 μM lapatinib unless otherwise stated.

In a further test the test system is HSP90β. Briefly: HSP90β phosphorylation (Ser226, Ser255). In kind it is cell-based.
The mark [3] stands for this setting: resistant cells, 1 μM lapatinib.

Chain of HER2 (P04626 23-1255): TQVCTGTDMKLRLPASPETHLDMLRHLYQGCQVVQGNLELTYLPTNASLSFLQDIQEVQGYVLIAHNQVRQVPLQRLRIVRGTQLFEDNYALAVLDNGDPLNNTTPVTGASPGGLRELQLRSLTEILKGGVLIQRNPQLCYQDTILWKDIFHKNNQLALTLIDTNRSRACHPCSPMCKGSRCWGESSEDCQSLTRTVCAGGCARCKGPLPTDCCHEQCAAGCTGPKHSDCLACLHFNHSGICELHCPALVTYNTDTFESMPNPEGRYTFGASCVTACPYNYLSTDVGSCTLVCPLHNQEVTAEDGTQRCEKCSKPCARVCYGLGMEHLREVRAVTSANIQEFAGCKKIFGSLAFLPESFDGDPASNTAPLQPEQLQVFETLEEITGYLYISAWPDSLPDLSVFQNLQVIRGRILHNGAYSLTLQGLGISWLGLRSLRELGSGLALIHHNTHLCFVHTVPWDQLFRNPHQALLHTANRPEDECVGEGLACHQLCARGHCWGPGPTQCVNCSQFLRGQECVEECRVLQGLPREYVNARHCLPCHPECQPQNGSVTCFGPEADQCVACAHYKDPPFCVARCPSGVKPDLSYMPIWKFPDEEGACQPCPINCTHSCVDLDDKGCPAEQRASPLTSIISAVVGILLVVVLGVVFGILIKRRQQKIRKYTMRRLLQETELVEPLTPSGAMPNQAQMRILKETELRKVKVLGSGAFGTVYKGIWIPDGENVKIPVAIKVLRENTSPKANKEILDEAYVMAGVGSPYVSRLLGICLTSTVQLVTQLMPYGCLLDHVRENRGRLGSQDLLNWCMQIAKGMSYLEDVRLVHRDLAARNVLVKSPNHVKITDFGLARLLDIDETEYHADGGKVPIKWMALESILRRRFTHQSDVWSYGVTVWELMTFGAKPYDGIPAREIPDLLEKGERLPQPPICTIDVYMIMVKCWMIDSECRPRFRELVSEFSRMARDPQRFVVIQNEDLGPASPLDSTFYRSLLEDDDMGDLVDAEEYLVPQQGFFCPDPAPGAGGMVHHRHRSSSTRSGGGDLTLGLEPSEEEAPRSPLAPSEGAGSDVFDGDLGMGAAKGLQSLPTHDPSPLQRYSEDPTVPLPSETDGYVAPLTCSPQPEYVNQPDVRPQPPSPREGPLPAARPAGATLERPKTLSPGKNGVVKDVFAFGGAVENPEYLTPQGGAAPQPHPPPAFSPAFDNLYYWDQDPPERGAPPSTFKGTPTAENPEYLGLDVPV
Description for AU565-derived tumor: Six week-old female nude mice were purchased from NCI Frederic. Xenograft tumors were produced by injection into the mammary fat pad with cells (10×10^6). Tumor volumes were calculated every 3-4 days based on caliper measurements of the short (a) and long (b) tumor diameters (volume=a2b/2). […] Mice were dosed orally with vehicle alone, lapatinib (100 mg/kg), Nutlin-3 (100 mg/kg), or combination of both twice daily by gavage.
Description for Akt: (§1) FIG. 3B is a set of immunoblots showing the levels of HER2 and phospho-HER2 in untreated cells and cells treated with lapatinib. Cells were treated with or without lapatinib (1 μM) for 24 hours in the presence of the caspase inhibitor z-VAD (50 μM). The cells were harvested and cell lysates were immunoblotted using antibodies against phospho-HER2 (Y877) and total HER2. FIG. 3C is an immunoblot for phospho-AKT (T308) and total AKT. BT474 and rBT474 cells were treated with 1 μM lapatinib in the presence of 50 μM z-VAD. At the indicated time points, the cells were harvested and immunoblotted. FIG. 3D is an immunoblot for phospho-Erl1/2(T202/Y204) and total Erk1/2. BT474 and rBT474 cells were treated with 1 μM lapatinib in the presence of 50 μM z-VAD. At the indicated time points, the cells were harvested and immunoblotted.
Description for CAS-MDM2 interaction: BT474 and rBT474 (left) or AU565 and rAU565 cells (right) cultured in the absence of lapatinib for one week were treated with 1 μM lapatinib and the cells were harvested at various time points. FIG. 11B is an immmunoblot for CAS and Actin. rBT474 cells were maintained in the presence of 1 M lapatinib and the cells were harvested at various time points following removal of lapatinib. […] BT474 and rBT474 cells were transiently transfected with FLAG-tagged CAS and subsequently treated with 50 μg/ml cycloheximide (CHX) and 1 μM lapatinib and the cells were harvested at various time points. […] BT474 and rBT474 (left) or SKBR3 and rSKBR3 cells (right) were co-transfected with FLAG-CAS and HA-Ub. Cells were treated with 1 μM lapatinib for 24 hours in the presence of z-VAD. […] FIG. 11E is an immunoblot for FLAG-tagged proteins retrieved by immunoprecipitation and association with MDM2. […] FIG. 11F is an immunoblot for CAs after immunoprecipitation for FLAG. […] Cells were treated with 10 μM MG132 for 3 hours. […] FIG. 11I is an immunoblot for MDM2 or CAs after immunoprecipitation with FLAG. BT474 and rBT474 cells were transfected with FLAG-CAS. Cells were treated with 1 μM lapatinib for 24 hours in the presence of z-VAD. After treatment with 10 μM MG132 for 5 hours, FLAG-CAS was retrieved by immunoprecipitation and association of endogenous MDM2 was analyzed by immunoblotting. […]
Description for Erk1/2: as §1
Description for HER2: as §1
Description for HSP90β: FIG. 7C is an autoradiograph of ^32P and an immunoblot showing the percentage of the protein phosphorylated. In the presence of [γ-^32P]ATP, recombinant His-tagged HSP90β proteins (wild type and the indicated mutants) on nickel beads were incubated with the HSP90β-targeted kinase casein kinase 2. FIG. 7D is an autoradiograph and corresponding immunoblot showing BT474 or rBT474 cells after being cultured in the absence or presence of 1 μM lapatinib for 24 hours in the presence of z-VAD. Recombinant His-tagged HSP90β protein on nickel beads was incubated with the cell lysates in the presence of [γ-^32P]ATP. FIG. 7E is an immunoblot for phospho-Hsp90β (Ser226) and total HSP90β at various time points. BT474 or rBT474 cells were treated with 1 μM lapatinib for the indicated amount of time. FIG. 7F is a set of graphs showing FACS analysis for the phosphorylation status of Hsp90β (Ser255). BT474 or rBT474 cells cultured in the presence of 1 μM lapatinib for 24 hours were fixed with formaldehyde and incubated with phospho-Hsp90β (Ser255) antibody followed by an Alexa488-conjugated secondary antibody.

`CS(=O)(=O)CCNCc1ccc(-c2ccc3ncnc(Nc4ccc(OCc5cccc(F)c5)c(Cl)c4)c3c2)o1` [lapatinib]: the MDM2 levels result is on record as “rapidly decreased” in the test on MDM2 (parental cells) and “maintained” in the test on MDM2 (resistant cells). Besides, the Huwe1 protein half-life result in the test with Huwe1 (lapatinib-treated rBT474 cells compared to BT474 cells, 50 μg/ml cycloheximide) was “significantly shorter”. In the test with Huwe1 (parental cells, 1 μM lapatinib), the Huwe1 protein levels result is “remained stable”. Besides, in the test with Huwe1 (setting [3]), the Huwe1 levels result was “significantly decreased”. The “phosphorylation of Akt” value in the test with Akt is “attenuated”. Moreover, the CAS protein levels result is reported as “did not alter” with CAS (low-HER2 lines non-responsive to lapatinib (e.g., T47D cells)); “did not affect” in the test on CAS (parental cells, 1 μM lapatinib); “declined over time” with CAS (setting [3]). Besides, the “cytochrome c-induced caspase activation” value in test [1] is reported as “strong defects in caspase activation”. The HER2 tyrosine autophosphorylation entry on HER2 is “inhibited”. Also, the “phosphorylation of Erk1/2” value in the test on Erk1/2 is on record as “attenuated”. Also, the “CAS mRNA levels” value with CAS mRNA is given as “did not cause a reduction”. Also, the AU565-derived tumor growth result with AU565-derived tumor is reported as “substantially inhibited”. Further, the CAS-MDM2 interaction entry is “decreased” on CAS-MDM2 interaction (BT474 cells) and “enhanced” on CAS-MDM2 interaction (rBT474 cells). In addition, the “apoptotic cell death in response to lapatinib” value in [2] is recorded as “died from apoptosis”. For the same compound, the “HSP90β phosphorylation at both Ser226 and Ser255” value in the test on HSP90β (lapatinib-treated resistant cells compared to sensitive cells) is reported as “markedly decreased”. Also, the HSP90β phosphorylation result in the test with HSP90β (normal BT474 cells, 1 μM lapatinib) is on record as “did not prevent”.

(Values after patent US9937178B2, “Methods of identifying and using MDM2 inhibitors” (DUKE UNIVERSITY, priority 2011, dated 2018).)
